Reference: EP4745135A1 (Gluetacs Therapeutics (Shanghai) Co., Ltd., priority 2023, dated 2025)

Legend:
IKZF2 = target: T1, IKZF2 (Homo sapiens, UniProt Q96SW2+Q9UKS7); assay: Western blot, degradation of substrate protein in hPBMCs; format: cell-based; conditions: 24 hours treatment, compounds at 50 nM and 500 nM (concentration behind the class not stated)
T1 construct: effects of the compounds of the present disclosure on the expression of target proteins in cells; endogenous in cells; host or cells: human PBMCs (Milecell Biotechnologies)

CK1α = target: T2, CK1α (Homo sapiens, UniProt P48729+Q96SW2); assay: as above; format: cell-based; conditions: 24 hours treatment, compounds at 50 nM and 500 nM (concentration behind the class not stated)
T2 construct: effects of the compounds of the present disclosure on the expression of target proteins in cells; endogenous in cells; host or cells: human PBMCs (Milecell Biotechnologies)

WEE1 = target: T3, WEE1 (Homo sapiens, UniProt P30291+Q96SW2); assay: as above; format: cell-based; conditions: 24 hours treatment, compounds at 50 nM and 500 nM (concentration behind the class not stated)
T3 construct: effects of the compounds of the present disclosure on the expression of target proteins in cells; endogenous in cells; host or cells: human PBMCs (Milecell Biotechnologies)

IKZF1 = target: T4, IKZF1 (Homo sapiens, UniProt Q13422+Q96SW2); assay: as above; format: cell-based; conditions: 24 hours treatment, compounds at 50 nM and 500 nM (concentration behind the class not stated)
T4 construct: effects of the compounds of the present disclosure on the expression of target proteins in cells; endogenous in cells; host or cells: human PBMCs (Milecell Biotechnologies)

IKZF3 = target: T5, IKZF3 (Homo sapiens, UniProt Q96SW2+Q9UKT9); assay: as above; format: cell-based; conditions: 24 hours treatment, compounds at 50 nM and 500 nM (concentration behind the class not stated)
T5 construct: effects of the compounds of the present disclosure on the expression of target proteins in cells; endogenous in cells; host or cells: human PBMCs (Milecell Biotechnologies)

GSPT1 = assay: as above; format: cell-based, Human; conditions: 24 hours treatment, compounds at 50 nM and 500 nM (concentration behind the class not stated)
[1] = target: T6, human Cereblon WT GST-tagged protein (Homo sapiens, UniProt Q96SW2); assay: CRBN-binding affinity, HTRF (CEREBLON BINDING kit); conditions: for inhibition at 0.5 µM: read-out: Inhibition Rate at 0.5 µM (%); for inhibition at 2 µM: read-out: Inhibition Rate at 2 µM (%)
T6 construct: purchased CISBIO 64BDCRBNPEH
T6 sequence (Q96SW2 whole entry): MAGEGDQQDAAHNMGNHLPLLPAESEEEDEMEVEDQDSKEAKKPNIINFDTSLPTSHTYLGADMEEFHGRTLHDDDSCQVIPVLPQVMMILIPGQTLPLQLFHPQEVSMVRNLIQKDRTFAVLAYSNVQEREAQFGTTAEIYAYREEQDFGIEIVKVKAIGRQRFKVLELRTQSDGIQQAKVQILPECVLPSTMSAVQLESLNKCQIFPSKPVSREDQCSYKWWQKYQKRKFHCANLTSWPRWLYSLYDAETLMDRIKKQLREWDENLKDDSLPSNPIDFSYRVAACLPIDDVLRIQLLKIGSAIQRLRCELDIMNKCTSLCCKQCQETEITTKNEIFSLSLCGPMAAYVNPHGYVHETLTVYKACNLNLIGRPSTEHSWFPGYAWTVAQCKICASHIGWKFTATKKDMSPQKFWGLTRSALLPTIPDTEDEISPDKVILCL

T2 sequence (P48729 whole entry): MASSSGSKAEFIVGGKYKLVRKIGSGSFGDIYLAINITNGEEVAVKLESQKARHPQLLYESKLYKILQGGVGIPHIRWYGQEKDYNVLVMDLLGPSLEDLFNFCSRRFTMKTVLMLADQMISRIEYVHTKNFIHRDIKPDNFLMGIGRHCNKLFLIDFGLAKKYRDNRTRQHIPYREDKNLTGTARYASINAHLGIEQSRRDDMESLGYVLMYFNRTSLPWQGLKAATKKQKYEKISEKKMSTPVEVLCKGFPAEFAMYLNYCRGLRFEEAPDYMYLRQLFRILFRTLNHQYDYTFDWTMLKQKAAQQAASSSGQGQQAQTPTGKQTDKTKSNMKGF
T2 sequence (Q96SW2 whole entry): as the sequence (Q96SW2 whole entry) above
T2 sequence (Q16531 whole entry partner): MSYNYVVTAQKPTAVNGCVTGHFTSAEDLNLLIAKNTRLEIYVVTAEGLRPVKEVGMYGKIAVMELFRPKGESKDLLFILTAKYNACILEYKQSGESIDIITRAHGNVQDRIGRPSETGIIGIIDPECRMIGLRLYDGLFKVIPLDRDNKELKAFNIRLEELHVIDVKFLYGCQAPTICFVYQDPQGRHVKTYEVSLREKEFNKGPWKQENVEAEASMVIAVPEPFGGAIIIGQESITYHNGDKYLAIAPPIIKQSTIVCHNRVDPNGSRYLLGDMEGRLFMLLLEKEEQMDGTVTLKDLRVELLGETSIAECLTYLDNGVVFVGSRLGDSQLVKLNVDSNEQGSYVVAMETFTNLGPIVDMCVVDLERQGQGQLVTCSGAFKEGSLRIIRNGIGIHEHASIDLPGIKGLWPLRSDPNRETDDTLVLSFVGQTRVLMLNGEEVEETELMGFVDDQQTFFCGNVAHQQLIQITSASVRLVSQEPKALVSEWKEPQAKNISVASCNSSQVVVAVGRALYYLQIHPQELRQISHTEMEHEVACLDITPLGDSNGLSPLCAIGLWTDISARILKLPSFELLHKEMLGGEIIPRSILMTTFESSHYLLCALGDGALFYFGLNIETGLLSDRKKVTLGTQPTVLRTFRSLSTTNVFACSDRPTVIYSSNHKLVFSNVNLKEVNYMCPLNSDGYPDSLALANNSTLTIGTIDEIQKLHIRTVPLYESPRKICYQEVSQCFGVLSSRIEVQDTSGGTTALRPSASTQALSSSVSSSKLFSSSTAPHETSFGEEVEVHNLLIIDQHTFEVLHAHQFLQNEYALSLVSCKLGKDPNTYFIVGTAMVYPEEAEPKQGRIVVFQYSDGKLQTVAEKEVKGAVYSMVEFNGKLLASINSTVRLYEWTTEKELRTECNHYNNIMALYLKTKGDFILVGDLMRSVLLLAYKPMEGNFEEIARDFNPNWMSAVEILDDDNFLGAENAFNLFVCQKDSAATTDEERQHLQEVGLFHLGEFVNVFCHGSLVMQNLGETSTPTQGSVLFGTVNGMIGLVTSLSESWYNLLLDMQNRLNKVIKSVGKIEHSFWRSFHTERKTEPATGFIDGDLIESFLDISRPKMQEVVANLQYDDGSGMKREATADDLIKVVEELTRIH
T1 sequence (Q9UKS7 whole entry): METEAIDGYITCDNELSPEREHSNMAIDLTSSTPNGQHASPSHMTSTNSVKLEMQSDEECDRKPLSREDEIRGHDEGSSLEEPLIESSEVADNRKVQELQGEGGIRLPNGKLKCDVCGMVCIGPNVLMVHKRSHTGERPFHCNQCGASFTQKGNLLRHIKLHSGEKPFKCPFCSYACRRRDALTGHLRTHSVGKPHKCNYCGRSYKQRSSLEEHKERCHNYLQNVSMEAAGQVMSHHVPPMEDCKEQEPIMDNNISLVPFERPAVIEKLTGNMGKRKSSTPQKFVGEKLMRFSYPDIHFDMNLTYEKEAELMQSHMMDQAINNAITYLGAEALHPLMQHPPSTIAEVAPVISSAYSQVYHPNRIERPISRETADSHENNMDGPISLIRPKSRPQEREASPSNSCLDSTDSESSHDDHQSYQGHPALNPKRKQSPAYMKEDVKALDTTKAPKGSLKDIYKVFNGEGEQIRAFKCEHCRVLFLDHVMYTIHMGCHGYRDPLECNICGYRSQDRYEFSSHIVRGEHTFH
T1 sequence (Q96SW2 whole entry): as the sequence (Q96SW2 whole entry) above
T1 sequence (Q16531 whole entry partner): as the sequence (Q16531 whole entry partner) above
T4 sequence (Q13422 whole entry): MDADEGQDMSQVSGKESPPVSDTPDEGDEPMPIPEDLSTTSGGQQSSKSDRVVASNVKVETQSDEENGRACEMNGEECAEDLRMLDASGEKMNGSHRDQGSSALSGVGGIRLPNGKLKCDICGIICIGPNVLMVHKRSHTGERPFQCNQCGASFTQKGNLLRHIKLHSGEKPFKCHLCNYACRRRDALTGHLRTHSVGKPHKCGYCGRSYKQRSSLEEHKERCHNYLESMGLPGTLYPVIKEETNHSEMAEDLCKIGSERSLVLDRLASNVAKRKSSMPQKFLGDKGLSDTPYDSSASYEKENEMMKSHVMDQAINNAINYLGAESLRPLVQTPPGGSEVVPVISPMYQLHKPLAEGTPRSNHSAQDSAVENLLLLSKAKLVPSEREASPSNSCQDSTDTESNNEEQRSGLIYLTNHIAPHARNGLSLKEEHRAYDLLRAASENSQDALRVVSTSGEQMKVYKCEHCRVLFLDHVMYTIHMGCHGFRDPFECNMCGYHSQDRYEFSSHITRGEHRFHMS
T4 sequence (Q96SW2 whole entry): as the sequence (Q96SW2 whole entry) above
T4 sequence (Q16531 whole entry partner): as the sequence (Q16531 whole entry partner) above
T3 sequence (P30291 whole entry): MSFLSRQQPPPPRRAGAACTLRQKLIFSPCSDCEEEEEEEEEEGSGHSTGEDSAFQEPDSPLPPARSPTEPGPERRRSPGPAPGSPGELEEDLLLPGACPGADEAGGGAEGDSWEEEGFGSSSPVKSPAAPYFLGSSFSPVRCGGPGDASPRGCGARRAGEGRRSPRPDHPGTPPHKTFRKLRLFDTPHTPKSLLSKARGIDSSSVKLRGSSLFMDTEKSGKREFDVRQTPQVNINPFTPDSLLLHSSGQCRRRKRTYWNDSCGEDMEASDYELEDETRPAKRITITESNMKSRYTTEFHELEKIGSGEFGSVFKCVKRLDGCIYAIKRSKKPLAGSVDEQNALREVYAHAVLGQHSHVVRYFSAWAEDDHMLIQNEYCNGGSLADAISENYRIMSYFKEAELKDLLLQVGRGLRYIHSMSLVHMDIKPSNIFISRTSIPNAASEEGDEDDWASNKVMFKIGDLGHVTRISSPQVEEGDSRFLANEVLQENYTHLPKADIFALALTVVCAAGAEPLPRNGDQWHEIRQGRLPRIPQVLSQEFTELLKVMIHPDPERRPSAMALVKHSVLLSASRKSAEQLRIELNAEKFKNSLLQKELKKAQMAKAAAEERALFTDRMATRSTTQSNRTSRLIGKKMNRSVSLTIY
T3 sequence (Q96SW2 whole entry): as the sequence (Q96SW2 whole entry) above
T3 sequence (Q16531 whole entry partner): as the sequence (Q16531 whole entry partner) above
T5 sequence (Q9UKT9 whole entry): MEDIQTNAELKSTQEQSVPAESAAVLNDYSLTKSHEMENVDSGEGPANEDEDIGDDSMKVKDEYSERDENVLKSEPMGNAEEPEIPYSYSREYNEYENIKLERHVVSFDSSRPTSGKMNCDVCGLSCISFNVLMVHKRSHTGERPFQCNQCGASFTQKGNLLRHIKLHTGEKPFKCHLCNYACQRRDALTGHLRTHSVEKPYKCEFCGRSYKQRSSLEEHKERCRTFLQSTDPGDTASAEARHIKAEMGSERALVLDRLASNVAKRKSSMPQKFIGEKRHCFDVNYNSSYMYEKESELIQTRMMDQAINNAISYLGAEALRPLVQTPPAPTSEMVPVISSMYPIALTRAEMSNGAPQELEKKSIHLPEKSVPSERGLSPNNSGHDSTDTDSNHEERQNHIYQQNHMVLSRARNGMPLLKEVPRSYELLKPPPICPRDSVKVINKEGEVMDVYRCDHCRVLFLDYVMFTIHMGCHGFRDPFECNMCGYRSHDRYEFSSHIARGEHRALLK
T5 sequence (Q96SW2 whole entry): as the sequence (Q96SW2 whole entry) above
T5 sequence (Q16531 whole entry partner): as the sequence (Q16531 whole entry partner) above

Compound	inhibition at 0.5 µM [1] [%]	inhibition at 2 µM [1] [%]	IKZF2 substrate protein remaining % (IKZF2)	CK1α substrate protein remaining % (CK1α)	Wee1 substrate protein remaining % (WEE1)	IKZF 1 substrate protein remaining % (IKZF1)	IKZF3 substrate protein remaining % (IKZF3)	GSPT1 substrate protein remaining % (GSPT1)
Cc1cscc1C1=CCN(Cc2cccc3c2CN(C2CCC(=O)NC2=O)C3=S)CC1 (stereo not drawn) [GT-08308, 3-(4-((4-(4-methylthiophen-3-yl)-3,6-dihydropyridin-1(2H)-yl)methyl)-1-thioxoisoindolin-2-yl)piperidine-2,6-dione]	53 to 60	60 to 80	B (80%< substrate protein remaining %≤ 100%)	B (80%< substrate protein remaining %≤ 100%)	A (0% ≤ substrate protein remaining % ≤ 80%)	B (80%< substrate protein remaining %≤ 100%)	B (80%< substrate protein remaining %≤ 100%)	B (80%< substrate protein remaining %≤ 100%)
O=C1CCC(N2Cc3c(CN4CC=C(c5ccco5)CC4)cccc3C2=S)C(=O)N1 (stereo not drawn) [GT-08311, 3-(4-((4-(furan-2-yl)-3,6-dihydropyridin-1 (2H)-yl)methyl)-1-thioxoisoindolin-2-yl)piperidine-2,6-dione]	60 to 80	80 to 100	B (80%< substrate protein remaining %≤ 100%)	B (80%< substrate protein remaining %≤ 100%)	A (0% ≤ substrate protein remaining % ≤ 80%)	B (80%< substrate protein remaining %≤ 100%)	B (80%< substrate protein remaining %≤ 100%)	B (80%< substrate protein remaining %≤ 100%)
Cc1cc(C2=CCN(Cc3cccc4c3CN(C3CCC(=O)NC3=O)C4=S)CC2)cs1 (stereo not drawn) [GT-08318, 3-(4-((4-(5-methylthiophen-3-yl)-3,6-dihydropyridin-1(2H)-yl)methyl)-1-thioxoisoindolin-2-yl)piperidine-2,6-dione]	40 to 53	60 to 80	B (80%< substrate protein remaining %≤ 100%)	B (80%< substrate protein remaining %≤ 100%)	A (0% ≤ substrate protein remaining % ≤ 80%)	B (80%< substrate protein remaining %≤ 100%)	A (0% ≤ substrate protein remaining % ≤ 80%)	B (80%< substrate protein remaining %≤ 100%)
O=C1CCC(N2Cc3c(CN4CC=C(c5ccoc5)CC4)cccc3C2=S)C(=O)N1 (stereo not drawn) [GT-08319, 3-(4-((4-(furan-3-yl)-3,6-dihydropyridin-1 (2H)-yl)methyl)-1-thioxoisoindolin-2-yl)piperidine-2,6-dione]	40 to 53	80 to 100	B (80%< substrate protein remaining %≤ 100%)	B (80%< substrate protein remaining %≤ 100%)	A (0% ≤ substrate protein remaining % ≤ 80%)	B (80%< substrate protein remaining %≤ 100%)	A (0% ≤ substrate protein remaining % ≤ 80%)	B (80%< substrate protein remaining %≤ 100%)

The next lines start with results.

inhibition at 0.5 µM [1] [%]	inhibition at 2 µM [1] [%]	Compound	IKZF2 substrate protein remaining % (IKZF2)	CK1α substrate protein remaining % (CK1α)	Wee1 substrate protein remaining % (WEE1)	IKZF 1 substrate protein remaining % (IKZF1)	IKZF3 substrate protein remaining % (IKZF3)	GSPT1 substrate protein remaining % (GSPT1)
53 to 60	80 to 100	Cc1cscc1C1CCN(Cc2cccc3c2CN(C2CCC(=O)NC2=O)C3=S)CC1 (stereo not drawn) [GT-08309, 3-(4-((4-(4-methylthiophen-3-yl)piperidin-1-yl)methyl)-1-thioxoisoindolin-2-yl)piperidine-2,6-dione]	B (80%< substrate protein remaining %≤ 100%)	B (80%< substrate protein remaining %≤ 100%)	A (0% ≤ substrate protein remaining % ≤ 80%)	B (80%< substrate protein remaining %≤ 100%)	B (80%< substrate protein remaining %≤ 100%)	B (80%< substrate protein remaining %≤ 100%)
53 to 60	80 to 100	Cc1ccc(C2CCN(Cc3cccc4c3CN(C3CCC(=O)NC3=O)C4=S)CC2)s1 (stereo not drawn) [GT-08312, 3-(4-((4-(5-methylthiophen-2-yl)piperidin-1-yl)methyl)-1-thioxoisoindolin-2-yl)piperidine-2,6-dione]	B (80%< substrate protein remaining %≤ 100%)	B (80%< substrate protein remaining %≤ 100%)	A (0% ≤ substrate protein remaining % ≤ 80%)	B (80%< substrate protein remaining %≤ 100%)	B (80%< substrate protein remaining %≤ 100%)	B (80%< substrate protein remaining %≤ 100%)
40 to 53	60 to 80	O=C1CCC(N2Cc3c(CN4CCN(c5ccsc5)CC4)cccc3C2=S)C(=O)N1 (stereo not drawn) [GT-08313, 3-(4-((4-(thiophen-3-yl)piperazin-1-yl)methyl)-1-thioxoisoindolin-2-yl)piperidine-2,6-dione]	A (0% ≤ substrate protein remaining % ≤ 80%)	B (80%< substrate protein remaining %≤ 100%)	A (0% ≤ substrate protein remaining % ≤ 80%)	B (80%< substrate protein remaining %≤ 100%)	B (80%< substrate protein remaining %≤ 100%)	B (80%< substrate protein remaining %≤ 100%)
40 to 53	60 to 80	O=C1CCC(N2Cc3c(CN4CCC(c5ccsc5)CC4)cccc3C2=S)C(=O)N1 (stereo not drawn) [GT-08315, 3-(4-((4-(thiophen-3-yl)piperidin-1-yl)methyl)-1-thioxoisoindolin-2-yl)piperidine-2,6-dione]	B (80%< substrate protein remaining %≤ 100%)	B (80%< substrate protein remaining %≤ 100%)	A (0% ≤ substrate protein remaining % ≤ 80%)	B (80%< substrate protein remaining %≤ 100%)	B (80%< substrate protein remaining %≤ 100%)	B (80%< substrate protein remaining %≤ 100%)
40 to 53	60 to 80	O=C1CCC(N2Cc3c(CN4CCC(c5ccoc5)CC4)cccc3C2=S)C(=O)N1 (stereo not drawn) [GT-08317, 3-(4-((4-(furan-3-yl)piperidin-1-yl)methyl)-1-thioxoisoindolin-2-yl)piperidine-2,6-dione]	A (0% ≤ substrate protein remaining % ≤ 80%)	B (80%< substrate protein remaining %≤ 100%)	A (0% ≤ substrate protein remaining % ≤ 80%)	B (80%< substrate protein remaining %≤ 100%)	A (0% ≤ substrate protein remaining % ≤ 80%)	B (80%< substrate protein remaining %≤ 100%)
